Laboratory results published in the NIST ThermoML archive (doi:10.1016/j.jct.2011.01.014).

Assay: xn = mol fraction of the nth substance listed
Conditions: 101 kPa, Liquid; for mass density: Vibrating tube method; for speed of sound: sound velocity cell

CC(=O)[O-].[NH3+]CCO [2-hydroxyethylammonium acetate] + O
Conditions	mass density [kg/m3]	speed of sound [m/s]
288.15 K, x1 = 0.051	1055.26	1676.3
288.15 K, x1 = 0.1019	1085.14	1768.9
288.15 K, x1 = 0.1963	1116.52	1839
288.15 K, x1 = 0.2894	1131.28	1851.1
288.15 K, x1 = 0.3959	1140.75	1843.1
288.15 K, x1 = 0.5016	1145.83	1833.6
288.15 K, x1 = 0.5821	1148.34	1831.6
288.15 K, x1 = 0.6837	1150.31	1824.3
288.15 K, x1 = 0.7763	1152.17	1824.4
288.15 K, x1 = 0.8761	1153.59	1817.1
288.15 K, x1 = 0.9137	1153.92	1819.5
288.15 K, x1 = 1	1154.7	1817.2
290.65 K, x1 = 0.051	1054.36	1679
290.65 K, x1 = 0.1019	1084.06	1768.6
290.65 K, x1 = 0.1963	1115.24	1836.1
290.65 K, x1 = 0.2894	1129.93	1847.3
290.65 K, x1 = 0.3959	1139.38	1838.7
290.65 K, x1 = 0.5016	1144.47	1828.7
290.65 K, x1 = 0.5821	1146.91	1826.5
290.65 K, x1 = 0.6837	1148.88	1818.9
290.65 K, x1 = 0.7763	1150.75	1818.5
290.65 K, x1 = 0.8761	1152.16	1810.7
290.65 K, x1 = 0.9137	1152.5	1812.8
290.65 K, x1 = 1	1153.28	1810
293.15 K, x1 = 0.051	1053.41	1681.4
293.15 K, x1 = 0.1019	1082.96	1768.1
293.15 K, x1 = 0.1963	1113.95	1833.1
293.15 K, x1 = 0.2894	1128.59	1843.4
293.15 K, x1 = 0.3959	1138.01	1834.2
293.15 K, x1 = 0.5016	1143.09	1823.9
293.15 K, x1 = 0.5821	1145.54	1821.6
293.15 K, x1 = 0.6837	1147.45	1813.6
293.15 K, x1 = 0.7763	1149.34	1812.9
293.15 K, x1 = 0.8761	1150.75	1804.6
293.15 K, x1 = 0.9137	1151.09	1806.5
293.15 K, x1 = 1	1151.87	1803.2
295.65 K, x1 = 0.051	1052.44	1683.6
295.65 K, x1 = 0.1019	1081.85	1767.5
295.65 K, x1 = 0.1963	1112.66	1830.1
295.65 K, x1 = 0.2894	1127.24	1839.5
295.65 K, x1 = 0.3959	1136.62	1829.7
295.65 K, x1 = 0.5016	1141.71	1819.1
295.65 K, x1 = 0.5821	1144.18	1816.5
295.65 K, x1 = 0.6837	1146.02	1808.4
295.65 K, x1 = 0.7763	1147.92	1807.5
295.65 K, x1 = 0.8761	1149.33	1798.7
295.65 K, x1 = 0.9137	1149.67	1800.5
295.65 K, x1 = 1	1150.45	1796.8
298.15 K, x1 = 0.051	1051.43	1685.5
298.15 K, x1 = 0.1019	1080.72	1766.7
298.15 K, x1 = 0.1963	1111.36	1827
298.15 K, x1 = 0.2894	1125.89	1835.5
298.15 K, x1 = 0.3959	1135.24	1825.2
298.15 K, x1 = 0.5016	1140.33	1814.2
298.15 K, x1 = 0.5821	1142.82	1811.6
298.15 K, x1 = 0.6837	1144.63	1803.3
298.15 K, x1 = 0.7763	1146.5	1802.1
298.15 K, x1 = 0.8761	1147.91	1793
298.15 K, x1 = 0.9137	1148.26	1794.7
298.15 K, x1 = 1	1149.04	1790.7
300.65 K, x1 = 0.051	1050.38	1687.2
300.65 K, x1 = 0.1019	1079.57	1765.8
300.65 K, x1 = 0.1963	1110.06	1823.9
300.65 K, x1 = 0.2894	1124.53	1831.6
300.65 K, x1 = 0.3959	1133.86	1820.6
300.65 K, x1 = 0.5016	1138.94	1809.4
300.65 K, x1 = 0.5821	1141.44	1806.7
300.65 K, x1 = 0.6837	1143.27	1798.2
300.65 K, x1 = 0.7763	1145.08	1796.9
300.65 K, x1 = 0.8761	1146.49	1787.4
300.65 K, x1 = 0.9137	1146.85	1789.1
300.65 K, x1 = 1	1147.63	1784.8
303.15 K, x1 = 0.051	1049.3	1688.6
303.15 K, x1 = 0.1019	1078.39	1764.8
303.15 K, x1 = 0.1963	1108.74	1820.6
303.15 K, x1 = 0.2894	1123.17	1827.5
303.15 K, x1 = 0.3959	1132.47	1816
303.15 K, x1 = 0.5016	1137.56	1804.6
303.15 K, x1 = 0.5821	1140.07	1801.9
303.15 K, x1 = 0.6837	1141.9	1793.2
303.15 K, x1 = 0.7763	1143.67	1791.7
303.15 K, x1 = 0.8761	1145.07	1782
303.15 K, x1 = 0.9137	1145.43	1783.6
303.15 K, x1 = 1	1146.22	1779
305.65 K, x1 = 0.051	1048.18	–
305.65 K, x1 = 0.1019	1077.21	–
305.65 K, x1 = 0.1963	1107.43	–
305.65 K, x1 = 0.2894	1121.8	–
305.65 K, x1 = 0.3959	1131.08	–
305.65 K, x1 = 0.5016	1136.16	–
305.65 K, x1 = 0.5821	1138.68	–
305.65 K, x1 = 0.6837	1140.52	–
305.65 K, x1 = 0.7763	1142.31	–
305.65 K, x1 = 0.8761	1143.65	–
305.65 K, x1 = 0.9137	1144.01	–
305.65 K, x1 = 1	1144.8	–
